Laboratory results published in patent US3941763A, “PGlu-D-Met-Trp-Ser-Tyr-D-Ala-Leu-Arg-Pro-Gly-NH2 and intermediates” (American Home Products Corporation, priority 1975, dated 1976).
Non-standard residues stand in square brackets, D forms with d. Residues, ends and D or L forms follow the SMILES beside them. pGlu = O=C1CC[C@@H](C(=O)O)N1

How the values were obtained:
[1] = test system: rat pituitary tissue cultures; assay: Inhibition of LRH-induced release of LH in vitro in rat pituitary tissue cultures; format: cell-based
Description: LH concentration is determined by double-antibody radioimmunoassay.

[2] = test system: LRH-induced release of LH; assay: Inhibition of LRH-induced release of LH in vivo in rats; parameters: species or system Male Sprague-Dawley rats
Description: Male Sprague-Dawley rats are divided into two groups of at least 5 animals in each group. One group receives the test compound. The other is the control group (no test compound). At zero time, the test group receives a 100-ng dose (subcutaneous) of D--Met^2 --D--Ala^6 --LRH in 0.2 ml. of physiological saline, while the control group receives a 0.2 ml. dose of physiological saline alone. At 20 minutes, blood samples are removed by cardiac puncture, and LH concentration is determined by double-antibody radioimmunoassay. At 45 minutes, the zero-time dose is repeated for each group of animals. At 50 minutes, the animals in each group are given a 200-ng dose (subcutaneous) of LRH in 0.2 ml. of physiological saline. A second blood sample is removed by cardiac puncture at 70 minutes and LH concentration is determined.

| SMILES | LH concentration ([1]; LRH 5 ng/ml alone, no test compound) | LH Plasma Conc. ([2]; time 20 minutes, before LRH administration, 100 ng s.c. test compound at zero time) | LH Plasma Conc. ([2]; time 70 minutes, after LRH administration (200 ng s.c. at 50 min), 100 ng s.c. test compound at 0 and 45 min) | LH concentration ([1]; LRH 5 ng/ml + D-Met2-D-Ala6-LRH 10 ng/ml, double-antibody radioimmunoassay) | LH concentration ([1]; LRH 5 ng/ml + D-Met2-D-Ala6-LRH 100 ng/ml, double-antibody radioimmunoassay) | LH concentration ([1]; LRH 5 ng/ml + D-Met2-D-Ala6-LRH 1000 ng/ml, double-antibody radioimmunoassay) |
| --- | --- | --- | --- | --- | --- | --- |
| CC(C)C[C@H](NC(=O)CNC(=O)[C@H](Cc1ccc(O)cc1)NC(=O)[C@H](CO)NC(=O)[C@H](Cc1c[nH]c2ccccc12)NC(=O)[C@H](Cc1c[nH]cn1)NC(=O)[C@@H]1CCC(=O)N1)C(=O)N[C@@H](CCCNC(=N)N)C(=O)N1CCC[C@H]1C(=O)NCC(N)=O [LRH, L--pGlu--His--Trp--Ser--Tyr--Gly--Leu--Arg--Pro--Gly--NH2, reference compound] | 282 ± 11 ng/mL | – | – | – | – | – |
| CSCC[C@@H](NC(=O)[C@@H]1CCC(=O)N1)C(=O)N[C@@H](Cc1c[nH]c2ccccc12)C(=O)N[C@@H](CO)C(=O)N[C@@H](Cc1ccc(O)cc1)C(=O)N[C@H](C)C(=O)N[C@@H](CC(C)C)C(=O)N[C@@H](CCCNC(=N)N)C(=O)N1CCC[C@H]1C(=O)NCC(=O)O [D--Met^2 --D--Ala^6 --LRH, L-Pyroglutamyl-D-methionyl-L-tryptophyl-L-seryl-L-tyrosyl-D-alanyl-L-leucyl-L-arginyl-L-prolyl-glycine] ([pGlu][dM]WSY[dA]LRPG-OH) | – | 10 ± 4 ng/mL | 25 ± 5 ng/mL | 308 ± 2 ng/mL | 143 ± 2 ng/mL | 92 ± 2 ng/mL |
